Laboratory results published in patent US8642620B2, “Heteroaryl-substituted amides comprising an unsaturated or cyclic linker group, and their use as pharmaceuticals” (Sanofi, priority 2005, dated 2014).
Where a name gives a salt, the structure may show the parent alone.

Experiments:
eNOS promoter = assay: Activation of eNOS transcription (eNOS promoter-luciferase reporter gene assay); assay type: cell-based; settings: human endothelial cell line stably transfected with eNOS promoter-luciferase construct; 18 h incubation; EC50 determined graphically; read-out: EC50 values of transcription induction ratios (TIR)
Method: Activation of eNOS transcription was measured as described in detail by Li et al., “Activation of protein kinase C alpha and/or epsilon enhances transcription of the human endothelial nitric oxide synthase gene”, Mol. Pharmacol. 53 (1998) 630. Briefly, a 3.5 kB long fragment 5′ of the starting codon of the eNOS gene was cloned, sequenced and cloned in firefly luciferase expression plasmids to monitor activation of the eNOS promoter by reporter gene activity. A human endothelial cell line stable transfected and expressing this promoter-reporter construct was used for compound testing. Cells were incubated for 18 h with the compounds.
All compounds were dissolved in sterile dimethyl sulfoxide (DMSO). A final concentration of 0.5% DMSO in complete medium was allowed. Induction of reporter gene expression in these cells was measured using a standard luciferase assay system (Promega, Cat. No. E150) according to the manufacturer's instructions. Luciferase induction in cells incubated with compounds were compared to those incubated with solvent alone. The ratio of both activities (transcription induction ratio, TIR) was plotted as a function of compound concentration. Typically, TIR values started at low concentrations at a ratio of 1, indicating no compound effect, and extended up to a maximum TIR value TIR(max) which indicates the increase of the eNOS transcription. EC50 values of transcription induction ratios as a function of compound concentration were determined graphically.

Row | EC50 (eNOS promoter) | melting point | Structure (SMILES)
1 | 500 to 5000 nM |  | O=c1ccccn1C/C=C/c1nc(-c2ccc(F)cc2)cs1 [Example 3, 1-(3-(4-(4-Fluorophenyl)thiazol-2-yl)allyl)-1H-pyridin-2-one]
2 | 500 to 5000 nM |  | O=C1CCCC(=O)N1CC#Cc1ccc(-c2ccccc2F)nc1 [Example 2, 1-(3-(6-(2-Fluorophenyl)pyridin-3-yl)prop-2-ynyl)piperidine-2,6-dione trifluoroacetic acid salt]
3 | < 500 nM | 172 °C | O=C1CNC(=O)N1C1CC1c1ccc(-c2ccc(F)c(Cl)c2)nc1 (racemic) [Example 21, 3-((E)-2-(6-(3-Chloro-4-fluorophenyl)pyridin-3-yl)cyclopropyl)imidazolidine-2,4-dione]
4 | 500 to 5000 nM |  | CC1(C)NC(=O)N(C/C=C/c2ccc(-c3ccc(F)cc3)nc2)C1=O [Example 11, 3-(3-(6-(4-Fluorophenyl)pyridin-3-yl)allyl)-5,5-dimethylimidazolidine-2,4-dione trifluoroacetic acid salt]
